The values that follow are results of earlier work, collected in US20100178285A1, “SYNERGISTIC ANTHELMINTIC COMPOSITION” (priority 2006, published 2010).

The subject of data set [1] is gastrointestinal nematodes of sheep and goats.
For data set [2] the following is noted: sheep.
Data set [3] deals with gastrointestinal nematodes of sheep and goats. The following applies: first farm, ten days after treatment.
Data set [4] concerns mixed species of gastrointestinal nematodes. To be noted: sheep, 7.5 mg/kg.
The test system of data set [5] is Heligmosomoides polygyrus. The following applies: in vitro, H. polygyrus.
[6] abbreviates: second farm, 10 days after treatment.

Structures are written as SMILES. Like-named read-outs stand apart in the source and are kept apart here.

As for `CCCSc1ccc2nc(NC(=O)OC)[nH]c2c1` [albendazole], the “reduction in faecal egg count” value in data set [1] (setting [6]) is listed as 59.4%.
As for `c1ccc([C@H]2CN3CCSC3=N2)cc1` [levamisole], the “free T3 and free T4 levels” value in data set [2] (either group (7.5 and 40 mg kg(−1))) was “not changed”. In addition, in data set [2] (groups 1 and 2), the inorganic phosphate levels entry was “decreased”, the serum albumin level entry is listed as “increased” and the serum cholesterol level result was “increased”. Further, the “triiodothyronine (T3) and thyroxin (T4) levels vs control” value in data set [2] (oral 7.5 mg kg(−1) (group 1)) is “no significant changes”. Besides, in data set [2] (oral 40 mg kg(−1) (group 2)), the “levels of total T3” value was “increase” and the “levels of total T4” value was “decreased”. Also, in data set [2] (oral 7.5 and 40 mg kg(−1)), the “alanine aminotransferase (ALT) activity” value is “increased significantly”, the “aspartate aminotransferase (AST) activity” value is “increased significantly”, the “creatinine kinase (CK) activity” value was “increased significantly” and the “lactate dehydrogenase (LDH) activity” value is “increased significantly”. Further, in data set [2] (oral 7.5 and 40 mg kg(−1)), the “serum alkaline phosphatase (ALP) activities” value is listed as “decreased”. Moreover, the “reduction in faecal egg count” value in data set [3] is 97%. For the same molecule, the “reduction in faecal egg count” value in data set [1] (first farm, ten days after treatment) was 98%. Moreover, in data set [1] (setting [6]), the “reduction in faecal egg count” value is recorded as 99.4%. In addition, the “reduction in EPG” value in data set [4] was 99.2%.
In the case of `CC(C)C[C@H](NC(=O)[C@H]1O[C@@H]1C(=O)O)C(=O)NCCCCN=C(N)N` [Group E-64, E-64], the “effect of inhibitor on efficacy of the cysteine proteinases” value in data set [5] was “completely inhibited”.
